System: M. catarrhalis A894
Assay: Minimal inhibitory concentration (MIC), microdilution method in cation-adjusted Mueller-Hinton Broth (CLSI M7-A7)
Assay type: cell-based
Conditions: strain A894; for MIC: Moraxella catarrhalis
Experimental: Minimal inhibitory concentrations (MICs; mg/1) were determined in cation-adjusted Mueller-Hinton Broth by a microdilution method following the description given in “Methods for Dilution Antimicrobial Susceptibility Tests for Bacteria that Grow Aerobically”, Approved standard, 7th ed., Clinical and Laboratory Standards Institute (CLSI) Document M7-A7, Wayne, Pa., USA, 2006.

O=C1CSc2ccc(N3C[C@@H](CCCN[C@H]4Cn5c(=O)cnc6ccc(F)c4c65)OC3=O)cc2N1 [Example 105, (R)-7-fluoro-6-{3-[(R)-2-oxo-3-(3-oxo-3,4-dihydro-2H-benzo[1,4]thiazin-6-yl)-oxazolidin-5-yl]-propylamino}-5,6-dihydro-pyrrolo[1,2,3-de]quinoxalin-3-one]
MIC: ≤ 0.031 µg/mL

O=C1CSc2ccc(N3C[C@@H](CNCCC4Cn5c(=O)ccc6ccc(F)c4c65)OC3=O)cc2N1 (mixture of isomers) [Example 10, (1RS)-9-fluoro-1-(2-{[(R)-2-oxo-3-(3-oxo-3,4-dihydro-2H-benzo[1,4]thiazin-6-yl)-oxazolidin-5-ylmethyl]-amino}-ethyl)-1,2-dihydro-pyrrolo[3,2,1-ij]quinolin-4-one]
MIC: ≤ 0.031 µg/mL

Cl.O=C1CSc2ccc(N3C[C@@H](CCCN[C@@H]4c5c(F)ccc6ccc(=O)n(c56)[C@H]4C(=O)O)OC3=O)cc2N1 (relative stereo) [Example 186, (1R*,2R*)-9-fluoro-4-oxo-1-{3-[(R)-2-oxo-3-(3-oxo-3,4-dihydro-2H-benzo[1,4]thiazin-6-yl)-oxazolidin-5-yl]-propylamino}-1,2-dihydro-4H-pyrrolo[3,2,1-ij]quinoline-2-carboxylic acid hydrochloride]
MIC: 0.5 µg/mL

O=C1CSc2ccc(N3C[C@H](CCNCC4(O)Cn5c(=O)ccc6ccc(F)c4c65)OC3=O)cc2N1 (mixture of isomers) [Example 174, (RS)-9-fluoro-1-hydroxy-1-({2-[(S)-2-oxo-3-(3-oxo-3,4-dihydro-2H-benzo[1,4]thiazin-6-yl)-oxazolidin-5-yl]-ethylamino}-methyl)-1,2-dihydro-pyrrolo[3,2,1-ij]quinolin-4-one]
MIC: ≤ 0.031 µg/mL

O=C1COc2ccc(N3C[C@@H](CCCNCC4Cn5c(=O)ccc6ccc(F)c4c65)OC3=O)cc2N1 (mixture of isomers) [Example 52, (RS)-9-fluoro-1-({3-[(R)-2-oxo-3-(3-oxo-3,4-dihydro-2H-benzo[1,4]oxazin-6-yl)-oxazolidin-5-yl]-propylamino}-methyl)-1,2-dihydro-pyrrolo[3,2,1-ij]quinolin-4-one]
MIC: ≤ 0.031 µg/mL

O=C1CSc2ccc(N3C[C@@H](CCCN[C@H]4Cn5c(=O)cnc6ccc(F)c4c65)OC3=O)nc2N1 [Example 132, (R)-7-fluoro-6-{3-[(R)-2-oxo-3-(3-oxo-3,4-dihydro-2H-pyrido[3,2-b][1,4]thiazin-6-yl)-oxazolidin-5-yl]-propylamino}-5,6-dihydro-pyrrolo[1,2,3-de]quinoxalin-3-one]
MIC: ≤ 0.031 µg/mL

O=C1CSc2ccc(N3C[C@H](CCNC[C@H]4Cn5c(=O)ccc6ccc(F)c4c65)OC3=O)cc2N1 [Example 49, (S)-9-fluoro-1-({2-[(S)-2-oxo-3-(3-oxo-3,4-dihydro-2H-benzo[1,4]thiazin-6-yl)-oxazolidin-5-yl]-ethylamino}-methyl)-1,2-dihydro-pyrrolo[3,2,1-ij]quinolin-4-one]
MIC: ≤ 0.031 µg/mL

O=C1CSc2ccc(N3C[C@@H](CCN[C@H]4Cn5c(=O)ccc6ccc(F)c4c65)OC3=O)cc2N1 (racemic) [Example 14, (1RS)-9-fluoro-1-{2-[(RS)-2-oxo-3-(3-oxo-3,4-dihydro-2H-benzo[1,4]thiazin-6-yl)-oxazolidin-5-yl]-ethylamino}-1,2-dihydro-pyrrolo[3,2,1-ij]quinolin-4-one]
MIC: ≤ 0.031 µg/mL

(1R,2R)-2-(1-hydroxy-1-methyl-ethyl)-1-{3-[(R)-2-oxo-3-(3-oxo-3,4-dihydro-2H-benzo[1,4]thiazin-6-yl)-oxazolidin-5-yl]-propylamino}-1,2-dihydro-pyrrolo[3,2,1-ij]quinolin-4-one and (1S,2S)-2-(1-hydroxy-1-methyl-ethyl)-1-{3-[(R)-2-oxo-3-(3-oxo-3,4-dihydro-2H-benzo[1,4]thiazin-6-yl)-oxazolidin-5-yl]-propylamino}-1,2-dihydro-pyrrolo[3,2,1-ij]quinolin-4-one [Example 170]
MIC for M. catarrhalis A894: 0.25 µg/mL

O=C1CSc2ccc(N3C[C@@H](CCNCC4Cn5c(=O)ccc6ncc(F)c4c65)OC3=O)cc2N1 (mixture of isomers) [Example 28, (4RS)-3-fluoro-4-({2-[(R)-2-oxo-3-(3-oxo-3,4-dihydro-2H-benzo[1,4]thiazin-6-yl)-oxazolidin-5-yl]-ethylamino}-methyl)-4,5-dihydro-pyrrolo[3,2,1-de][1,5]naphthyridin-7-one]
MIC: ≤ 0.031 µg/mL

O=C1CSc2ccc(N3C[C@@H](CCCN(CCO)[C@@H]4Cn5c(=O)cnc6ccc(F)c4c65)OC3=O)cc2N1 [Example 66, (S)-7-fluoro-6-((2-hydroxy-ethyl)-{3-[(R)-2-oxo-3-(3-oxo-3,4-dihydro-2H-benzo[1,4]thiazin-6-yl)-oxazolidin-5-yl]-propyl}-amino)-5,6-dihydro-pyrrolo[1,2,3-de]quinoxalin-3-one]
MIC: ≤ 0.031 µg/mL

O=C1CSc2ccc(N3C[C@@H](CCCN[C@@H]4Cn5c(=O)ccc6ccc(F)c4c65)OC3=O)nc2N1 [Example 192, (S)-9-fluoro-1-{3-[(R)-2-oxo-3-(3-oxo-3,4-dihydro-2H-pyrido[3,2-b][1,4]thiazin-6-yl)-oxazolidin-5-yl]-propylamino}-1,2-dihydro-pyrrolo[3,2,1-ij]quinolin-4-one]
MIC: ≤ 0.031 µg/mL

O=C1COc2ccc(N3C[C@H](CCCN[C@@H]4Cn5c(=O)ccc6ccc(F)c4c65)OC3=O)nc2N1 [Example 189, (S)-9-fluoro-1-{3-[(S)-2-oxo-3-(3-oxo-3,4-dihydro-2H-pyrido[3,2-b][1,4]oxazin-6-yl)-oxazolidin-5-yl]-propylamino}-1,2-dihydro-pyrrolo[3,2,1-ij]quinolin-4-one]
MIC: ≤ 0.031 µg/mL

O=C1CSc2ccc(N3C[C@H](CCNCC4Cn5c(=O)ccc6ccc(F)c4c65)OC3=O)nc2N1 (mixture of isomers) [Example 198, (RS)-9-fluoro-1-({2-[(S)-2-oxo-3-(3-oxo-3,4-dihydro-2H-pyrido[3,2-b][1,4]thiazin-6-yl)-oxazolidin-5-yl]-ethylamino}-methyl)-1,2-dihydro-pyrrolo[3,2,1-ij]quinolin-4-one]
MIC: ≤ 0.031 µg/mL

O=C1CSc2ccc(N3C[C@@H](CCCNC4Cn5c(=O)ccc6ccc(Cl)c4c65)OC3=O)cc2N1 (mixture of isomers) [Example 178, (RS)-9-chloro-1-{3-[(R)-2-oxo-3-(3-oxo-3,4-dihydro-2H-benzo[1,4]thiazin-6-yl)-oxazolidin-5-yl]-propylamino}-1,2-dihydro-pyrrolo[3,2,1-ij]quinolin-4-one]
MIC: ≤ 0.031 µg/mL

O=C1CSc2ccc(N3C[C@H](CNCCC4Cn5c(=O)ccc6ccc(F)c4c65)OC3=O)cc2N1 (mixture of isomers) [Example 8, (1RS)-9-fluoro-1-(2-{[(S)-2-oxo-3-(3-oxo-3,4-dihydro-2H-benzo[1,4]thiazin-6-yl)-oxazolidin-5-ylmethyl]-amino}-ethyl)-1,2-dihydro-pyrrolo[3,2,1-ij]quinolin-4-one]
MIC: ≤ 0.031 µg/mL

CCc1ccc2ccc(=O)n3c2c1C(NCCC[C@@H]1CN(c2ccc4c(c2)NC(=O)CS4)C(=O)O1)C3 (mixture of isomers) [Example 179, (RS)-9-ethyl-1-{3-[(R)-2-oxo-3-(3-oxo-3,4-dihydro-2H-benzo[1,4]thiazin-6-yl)-oxazolidin-5-yl]-propylamino}-1,2-dihydro-pyrrolo[3,2,1-ij]quinolin-4-one]
MIC: ≤ 0.031 µg/mL

Source: patent US9822114B2, “Tricyclic oxazolidinone antibiotic compounds” (Idorsia Pharmaceuticals Ltd, priority 2008, dated 2017)
